Consider seven molecules from patent publication US11479532B2, “5-aminolevulinate synthase inhibitors and methods of use thereof” (UNIVERSITY OF SOUTH FLORIDA, priority 2017, dated 2022).

The structures appear in SMILES notation.

The subject of one assay is ALAS.
Assay: not given
Particulars: background, reference [3]; read-out: IC50 of known ALAS inhibitor; cited from earlier work.
With `NC(C(=O)O)C(=O)O` [aminomalonate], the IC50 – broadly, the concentration that inhibits the measured activity by half – is 7 µM.

The target in another assay is 5-aminolevulinate synthase (ALAS) (Mus musculus (Mouse), UniProt P08680). The assay can be described thus: ALAS activity. It is filed as biochemical.
Chain of 5-aminolevulinate synthase (ALAS) (P08680 50-587): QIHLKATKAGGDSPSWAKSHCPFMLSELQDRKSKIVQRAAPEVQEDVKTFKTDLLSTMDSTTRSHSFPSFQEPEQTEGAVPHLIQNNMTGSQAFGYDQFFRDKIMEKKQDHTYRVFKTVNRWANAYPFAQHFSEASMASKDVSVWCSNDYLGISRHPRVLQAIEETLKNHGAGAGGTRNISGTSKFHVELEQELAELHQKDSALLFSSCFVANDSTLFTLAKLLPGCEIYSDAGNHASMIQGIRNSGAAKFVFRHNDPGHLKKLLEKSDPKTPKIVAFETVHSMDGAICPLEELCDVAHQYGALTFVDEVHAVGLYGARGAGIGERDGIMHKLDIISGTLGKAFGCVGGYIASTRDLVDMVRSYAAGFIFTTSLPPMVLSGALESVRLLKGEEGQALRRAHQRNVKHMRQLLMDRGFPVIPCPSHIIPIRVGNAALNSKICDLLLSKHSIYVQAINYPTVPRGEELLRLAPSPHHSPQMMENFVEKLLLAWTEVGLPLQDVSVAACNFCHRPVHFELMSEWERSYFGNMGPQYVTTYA
Details: not given
How it is done:
ALAS activity was determined according the article, Stojanovski, B. M., Breydo, L., Hunter, G. A., Uversky, V. N, Ferreira G. C. (2014) Biochim. Biophys. Acta 1844, 2145-2154, which is hereby incorporated by reference in its entirety.
`CC1(C)CCN(c2ccc(C(=O)NS(=O)(=O)c3ccc(CN(CCSc4ccccc4)Cc4ccc(S(N)(=O)=O)cc4)cc3)cc2)CC1` [SZ10TA2] had an IC50 of 43 ± 5.8 µM.
As for `Cn1cc(C(=O)C2CCCCC2)c2cc(C(=O)NS(=O)(=O)c3ccc(CN(CCSc4ccccc4)Cc4ccc(S(N)(=O)=O)cc4)cc3)ccc21` [SZ10TA40], the 50% inhibitory concentration (IC50) came to 8.6 ± 0.9 µM.
Same read-out and setting: with `Cn1cc(C(=O)C2CCCCC2)c2cc(C(=O)NS(=O)(=O)c3ccc(-c4ccc(C(C)(C)C)cc4)cc3)ccc21` [SZ11TA40] the figure was 19.3 ± 2.7 µM.
Still for that read-out and setting: next, `O=C(NS(=O)(=O)c1ccc(CNc2cccc([N+](=O)[O-])c2)cc1)c1ccc(CN2C(=O)C(c3ccc(F)cc3F)=C(c3ccc(F)cc3F)C2=O)cc1` [SZ12TA42]: 8.6 ± 0.9 µM; `COc1cccc(CN(CCSc2ccccc2)Cc2ccc(S(=O)(=O)NC(=O)c3cccc4ccccc34)cc2)c1` [SZ17TA7]: 50 ± 6.1 µM; `COc1ccc(Cc2ccc(C(=O)NS(=O)(=O)c3ccc(-c4ccc(Oc5ccccc5)cc4)cc3)cc2)c(OC)c1OC` [SZ35TA24]: 31.4 ± 1.8 µM.
